This is an account of results in PMC9867533, “A New Anticancer Semisynthetic Theobromine Derivative Targeting EGFR Protein: CADDD Study” (Life, 2023).

The target in this experiment is EGFR^WT (Homo sapiens, UniProt P00533). Kind of experiment: in vitro EGFR kinase inhibition assay (human EGFR ELISA kit). Format: biochemical.

A word on the IC50: it is the concentration needed to halve the response being measured.

Each structure is given as a SMILES string.

Chain of EGFR^WT (P00533 25-1210): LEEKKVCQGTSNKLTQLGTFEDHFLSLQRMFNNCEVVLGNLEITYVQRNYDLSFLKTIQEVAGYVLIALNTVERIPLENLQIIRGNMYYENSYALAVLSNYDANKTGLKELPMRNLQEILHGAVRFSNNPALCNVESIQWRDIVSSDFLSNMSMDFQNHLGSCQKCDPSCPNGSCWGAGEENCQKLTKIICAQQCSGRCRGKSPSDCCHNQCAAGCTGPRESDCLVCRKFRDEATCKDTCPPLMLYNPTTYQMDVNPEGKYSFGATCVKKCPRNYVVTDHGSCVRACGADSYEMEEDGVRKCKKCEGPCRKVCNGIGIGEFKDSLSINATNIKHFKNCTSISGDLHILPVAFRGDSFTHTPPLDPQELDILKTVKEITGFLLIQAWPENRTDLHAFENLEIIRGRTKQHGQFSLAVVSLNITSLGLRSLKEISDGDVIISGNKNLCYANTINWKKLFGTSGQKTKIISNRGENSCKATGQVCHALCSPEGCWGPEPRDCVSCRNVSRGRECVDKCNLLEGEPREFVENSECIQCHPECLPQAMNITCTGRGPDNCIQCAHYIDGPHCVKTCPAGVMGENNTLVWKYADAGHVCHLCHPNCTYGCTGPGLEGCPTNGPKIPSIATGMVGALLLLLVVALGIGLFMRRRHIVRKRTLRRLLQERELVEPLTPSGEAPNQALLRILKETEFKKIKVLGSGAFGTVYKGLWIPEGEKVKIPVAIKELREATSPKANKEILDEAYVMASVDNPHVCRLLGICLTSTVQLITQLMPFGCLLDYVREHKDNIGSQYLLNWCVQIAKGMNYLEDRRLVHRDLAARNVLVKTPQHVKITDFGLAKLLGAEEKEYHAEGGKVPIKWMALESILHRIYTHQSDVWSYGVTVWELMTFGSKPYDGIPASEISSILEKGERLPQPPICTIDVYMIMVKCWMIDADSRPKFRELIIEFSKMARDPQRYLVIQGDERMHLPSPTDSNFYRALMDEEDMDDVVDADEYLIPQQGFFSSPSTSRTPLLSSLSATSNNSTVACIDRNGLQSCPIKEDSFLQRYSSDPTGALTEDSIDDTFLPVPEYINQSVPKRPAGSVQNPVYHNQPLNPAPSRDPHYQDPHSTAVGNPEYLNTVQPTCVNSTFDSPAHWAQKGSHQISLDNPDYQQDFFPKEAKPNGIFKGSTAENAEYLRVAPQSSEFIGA

The molecule `Cn1cnc2c1c(=O)n(CC(=O)Nc1ccc(Cl)cc1)c(=O)n2C` [T-1-PCPA, N-(4-Chlorophenyl)-2-(3,7-dimethyl-2,6-dioxo-2,3,6,7-tetrahydro-1H-purin-1-yl)acetamide] yielded an IC50 of 25.4 nM.
